Laboratory results as given in patent publication US11667645B2, “Granzyme B directed imaging and therapy” (CytoSite Biopharma Inc., priority 2018, dated 2023).
Like-named read-outs stand apart in the source and are kept apart here.

Assays:
[1] = biological target: Granzyme B (human lymphocytes) (Homo sapiens (Human), UniProt P10144); test: human Granzyme B biochemical assay; conditions: for IC50: read-out: IC50
Procedure, shortened: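 Fluorogenic Ac-IETD-AFC cleavage (Ex 400/Em 505 nm) read after 60 min at 22 °C, following 30 min, 22 °C enzyme–compound pre-incubation. Working stocks: enzyme 10 nM in 0.1% BSA buffer, substrate 800 µM, compound 8 points, 3.16-fold from 40 µM. Controls set 0% (DMSO) and 100% (standard inhibitor) inhibition; IC50 fitted.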

[2] = metabolic stability assay using liver microsomes; assay type: in vitro ADME; conditions: human liver microsomes, with NRS at 37° C.
Experimental: In addition, compounds of Formula I-VIII described above are also tested in the metabolic stability assay using liver microsomes, as provided below.
Buffer pH7.4: Prepare 1 (M) KH2PO4 and 1 (M) K2HPO4. Titrate 1(M) K2HPO4 with 1 (M) KH2PO4 to obtain pH 7.40. Dilute this buffer 10 fold in Water (30 ml buffer+270 ml of water) to obtain 100 mM phosphate buffer. Adjust pH to 7.40±0.02 using 5(N) HCl or 5(N) NaOH.
NADPH Regeneration System (NRS): Prepare a solution containing 13 mM NADP, 33 mM Glucose-6-phosphate, 33 mM MgCl2 and 4 U/ml Glucose-6-phosphate dehydrogenase in buffer.
Liver Microsome (LM) suspension: Thaw LM vial on ice, then mix 1.0 ml LM (20 mg/ml) with 19 ml buffer [final LM Conc: 1 mg/ml]
LM+NRS suspension: Mix 5.0 ml NRS with 20 ml LM suspension [final LM Conc: 0.8 mg/ml]
System suitability standard: a synthesized compound having Mol wt 686.2 used as System suitability standard. Dissolve this compound in ice-cold acetonitrile to obtain concentration of 0.1 μg/ml and store at 4° C.
Compound Stock: 10 mM in DMSO
Sub stock (100 μM): 4 μl of 10 mM Compound Stock+[…] Acetonitrile
Working plate (2 μM): 10 μl of 100 μM Sub stock+490 μl buffer
Incubate all plastic materials including tips at 37° C. overnight.
Incubate LM suspension and NRS at 37° C. for 15 min before use.
Add 40 μl buffer to the wells of blank plate.
Add 40 μl compound (from working plate) to 0, 5, 10, 20, 30 and 60 min plates.
Initiate reaction by adding 40 μl of LM+NRS suspension in each plate.
Terminate reaction by adding 240 μl ice-cold acetonitrile containing system suitability standard at designated time points. For T=0 add 240 μl ice-cold acetonitrile containing system suitability standard before LM+NRS addition.
Centrifuge (3500 rpm, 20 min and 15° C.) the plates.
Mix 110 μl supernatant with 110 μl water and quantitate amount of Compound in the solution using LC-MS/MS.
For Scaled CLint & Predicted CL use the relevant physiological parameters, as applicable.
Human LM: Corning, Cat #25117
Mouse LM: Xenotech, Cat #M1000
(2) Volumes mentioned in the protocol are representative values and may change depending on number of test compounds.
(3) It is assumed that the compounds are chemically stable in the assay system/buffer.
The metabolic stability assay described above can be performed using different test concentrations, LM Concentrations, or time points.
Certain compounds of this disclosure were tested in the microsomal stability assay provided above.

[3] = Granzyme B IC50 as repeated in Table 7
[4] = Granzyme B (human lymphocytes) 5 nM, substrate Ac-IETD-AFC 200 μM, Cpd incubation with enzyme 30 mins, 22° C., read time 60 mins

Sequence of Granzyme B (human lymphocytes) (P10144 21-247): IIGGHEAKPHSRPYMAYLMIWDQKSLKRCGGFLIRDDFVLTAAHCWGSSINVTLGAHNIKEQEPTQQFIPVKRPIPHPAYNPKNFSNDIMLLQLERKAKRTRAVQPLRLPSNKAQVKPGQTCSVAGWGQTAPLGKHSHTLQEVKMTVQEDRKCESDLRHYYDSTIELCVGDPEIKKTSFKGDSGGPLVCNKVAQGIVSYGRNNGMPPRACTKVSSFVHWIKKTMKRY

Row | SMILES | IC50 [1, 3] [nM] | IC50 [1, 4] [nM] | biological potency of separated isomer (in words) ([1]; isomers separated by prep HPLC or column chromatography) | HLM % remaining @ 30 min [2]
1 | CC(C)[C@H](NC(=O)Cc1csc2ccccc12)C(=O)N[C@H]1CCc2cccc3c2N(C1=O)[C@H](C(=O)NCc1c[nH]nn1)C3 [Compound C003, (2S,5S)-5-[(S)-2-(2-Benzo[b]thiophen-3-yl-acetylamino)-3-methyl-butyrylamino]-4-oxo-1,2,4,5,6,7-hexahydro-azepino[3,2,1-hi]indole-2-carboxylic acid (1H-[1,2,3]triazol-4-ylmethyl)-amide] | 1 to 300 | – | – | * (“*” indicates a remaining percentage of 0-30%)
2 | CC[C@H](C)[C@H](NC(C)=O)C(=O)N[C@H]1CCc2cccc3c2N(C1=O)[C@H](C(=O)NCc1c[nH]nn1)C3 [Compound C028, (2S,5S)-5-((2S,3S)-2-Acetylamino-3-methyl-pentanoylamino)-4-oxo-1,2,4,5,6,7-hexahydro-azepino[3,2,1-hi]indole-2-carboxylic acid (1H-[1,2,3]triazol-4-ylmethyl)-amide] | 1 to 300 | 1 to 300 | – | *** (the symbol “***” indicates a remaining percentage of 71-100%)
3 | CC[C@H](C)[C@H](NC(=O)COCCF)C(=O)N[C@H]1CCc2cccc3c2N(C1=O)[C@H](C(=O)NCc1ccn[nH]1)C3 [Compound C149, (2S,5S)-5-{(2S,3S)-2-[2-(2-Fluoro-ethoxy)-acetylamino]-3-methyl-pentanoylamino}-4-oxo-1,2,4,5,6,7-hexahydro-azepino[3,2,1-hi]indole-2-carboxylic acid (2H-pyrazol-3-ylmethyl)-amide] | – | > 5000 | – | –
4 | CC[C@H](C)[C@H](NC(=O)Cc1cc2ccccc2s1)C(=O)N[C@H]1CCc2cccc3c2N(C1=O)[C@H](C(=O)NCc1c[nH]nn1)C3 [Compound C158, (2S,5S)-5-[(2S,3S)-2-(2-Benzo[b]thiophen-2-yl-acetylamino)-3-methyl-pentanoylamino]-4-oxo-1,2,4,5,6,7-hexahydro-azepino[3,2,1-hi]indole-2-carboxylic acid (1H-[1,2,3]triazol-4-ylmethyl)-amide] | – | 1 to 300 | – | –
5 | CC[C@H](C)[C@H](NC(=O)Cc1nc2ccccc2o1)C(=O)N[C@H]1CCc2cccc3c2N(C1=O)[C@H](C(=O)NCc1c[nH]nn1)C3 [Compound C160, (2S,5S)-5-[(2S,3S)-2-(2-Benzooxazol-2-yl-acetylamino)-3-methyl-pentanoylamino]-4-oxo-1,2,4,5,6,7-hexahydro-azepino[3,2,1-hi]indole-2-carboxylic acid (1H-[1,2,3]triazol-4-ylmethyl)-amide] | – | 1 to 300 | – | –
6 | CC[C@H](C)[C@H](NC(=O)Cc1nc2ccccc2[nH]1)C(=O)N[C@H]1CCc2cccc3c2N(C1=O)[C@H](C(=O)NCc1c[nH]nn1)C3 [Compound C162, (2S,5S)-5-[(2S,3S)-2-(2-1H-Benzoimidazol-2-yl-acetylamino)-3-methyl-pentanoylamino]-4-oxo-1,2,4,5,6,7-hexahydro-azepino[3,2,1-hi]indole-2-carboxylic acid (1H-[1,2,3]triazol-4-ylmethyl)-amide] | – | 1 to 300 | – | –
7 | CC[C@H](C)[C@H](NC(=O)COCCF)C(=O)N[C@H]1CCc2cccc3c2N(C1=O)[C@H](C(=O)NCc1ncn[nH]1)C3 [Compound C163, (2S,5S)-5-{(2S,3S)-2-[2-(2-Fluoro-ethoxy)-acetylamino]-3-methyl-pentanoylamino}-4-oxo-1,2,4,5,6,7-hexahydro-azepino[3,2,1-hi]indole-2-carboxylic acid (2H-[1,2,4]triazol-3-ylmethyl)-amide] | – | > 5000 | – | –
8 | CC[C@H](C)[C@H](NC(=O)COCCF)C(=O)N[C@H]1CS(=O)(=O)c2cccc3c2N(C1=O)[C@H](C(=O)NCc1c[nH]nn1)C3 [Compound C172, (1S,8R)-8-{(2S,3S)-2-[2-(2-Fluoro-ethoxy)-acetylamino]-3-methyl-pentanoylamino}-6,6,9-trioxo-1,2,6,7,8,9-hexahydro-6lambda*6*- thia-9a-aza-benzo[cd]azulene-1-carboxylic acid (1H-[1,2,3]triazol-4-ylmethyl)-amide] | – | 301 to 1000 | – | –
9 | CC[C@H](C)[C@H](NC(=O)CC1Cc2ccccc2O1)C(=O)N[C@H]1CCc2cccc3c2N(C1=O)[C@H](C(=O)NCc1c[nH]nn1)C3 (stereo partly drawn) [Compound C173, (2S,5S)-5-[(2S,3S)-2-(2-2,3-Dihydro-benzofuran-2-yl-acetylamino)-3-methyl-pentanoylamino]-4-oxo-1,2,4,5,6,7-hexahydro-azepino[3,2,1-hi]indole-2-carboxylic acid (1H-[1,2,3]triazol-4-ylmethyl)-amide] | – | 1 to 300 | – | –

Further lines, with some results ahead:

Row | IC50 [1, 3] [nM] | IC50 [1, 4] [nM] | biological potency of separated isomer (in words) ([1]; isomers separated by prep HPLC or column chromatography) | SMILES | HLM % remaining @ 30 min [2]
10 | 1 to 300 | 1 to 300 | biologically potent | CC[C@H](C)[C@H](NC(=O)Cc1csc2ccccc12)C(=O)N[C@H]1CCc2cccc3c2N(C1=O)[C@H](C(=O)NCc1c[nH]nn1)C3 [Compound C006, (2S,5S)-5-[(2S,3S)-2-(2-Benzo[b]thiophen-3-yl-acetylamino)-3-methyl-pentanoylamino]-4-oxo-1,2,4,5,6,7-hexahydro-azepino[3,2,1hi]indole-2-carboxylic acid (1H-[1,2,3]triazol-4-ylmethyl)-amide] | * (“*” indicates a remaining percentage of 0-30%)
11 | 1 to 300 | 1 to 300 | – | CC(=O)N[C@H](C(=O)N[C@H]1CCc2cccc3c2N(C1=O)[C@H](C(=O)NCc1c[nH]nn1)C3)C(C)C [Compound C025, (2S,5S)-5-((S)-2-Acetylamino-3-methyl-butyrylamino)-4-oxo-1,2,4,5,6,7-hexahydro-azepino[3,2,1-hi]indole-2-carboxylic acid (1H-[1,2,3]triazol-4-ylmethyl)-amide] | *** (the symbol “***” indicates a remaining percentage of 71-100%)
12 | – | 1 to 300 | – | CC[C@H](C)[C@H](NC(=O)Cc1cc2ccccc2o1)C(=O)N[C@H]1CCc2cccc3c2N(C1=O)[C@H](C(=O)NCc1c[nH]nn1)C3 [Compound C159, (2S,5S)-5-[(2S,3S)-2-(2-Benzofuran-2-yl-acetylamino)-3-methyl-pentanoylamino]-4-oxo-1,2,4,5,6,7-hexahydro-azepino[3,2,1-hi]indole-2-carboxylic acid (1H-[1,2,3]triazol-4-ylmethyl)-amide] | –
13 | – | 1 to 300 | – | CC[C@H](C)[C@H](NC(=O)Cc1cc2ccccc2[nH]1)C(=O)N[C@H]1CCc2cccc3c2N(C1=O)[C@H](C(=O)NCc1c[nH]nn1)C3 [Compound C161, (2S,5S)-5-[(2S,3S)-2-(2-1H-Indol-2-yl-acetylamino)-3-methyl-pentanoylamino]-4-oxo-1,2,4,5,6,7-hexahydro-azepino[3,2,1-hi]indole-2-carboxylicacid (1H-[1,2,3]triazol-4-ylmethyl)-amide] | –
14 | – | > 5000 | – | CC[C@H](C)[C@H](NC(=O)COCCF)C(=O)N[C@H]1CCc2cccc3c2N(C1=O)[C@H](C(=O)NCc1nc(O)n[nH]1)C3 [Compound C164, (2S,5S)-5-{(2S,3S)-2-[2-(2-Fluoro-ethoxy)-acetylamino]-3-methyl-pentanoylamino}-4-oxo-1,2,4,5,6,7-hexahydro-azepino[3,2,1-hi]indole-2-carboxylic acid (5-hydroxy-2H-[1,2,4]triazol-3-ylmethyl)-amide] | –
15 | – | 1000 to 5000 | – | CC[C@H](C)[C@H](NC(=O)COCCF)C(=O)N[C@H]1CCc2cccc3c2N(C1=O)[C@H](C(=O)NCc1cc(O)n[nH]1)C3 [Compound C166, (2S,5S)-5-{(2S,3S)-2-[2-(2-Fluoro-ethoxy)-acetylamino]-3-methyl-pentanoylamino}-4-oxo-1,2,4,5,6,7-hexahydro-azepino[3,2,1-hi]indole-2-carboxylic acid (5-hydroxy-2H-pyrazol-3-ylmethyl)-amide] | –
16 | – | 301 to 1000 | – | CC[C@H](C)[C@H](NC(=O)COCCF)C(=O)N[C@H]1CCc2cccc3c2N(C1=O)[C@H](C(=O)NCB(O)O)C3 [Compound C170, {[((2S,5S)-5-{(2S,3S)-2-[2-(2-Fluoro-ethoxy)-acetylamino]-3-methyl-pentanoylamino}-4-oxo-1,2,4,5,6,7-hexahydro-azepino[3,2,1-hi]indole-2-carbonyl)-amino]-methyl}-boronic acid] | –
